PMC9709425, “The inhibition of NCS-1 binding to Ric8a rescues fragile X syndrome mice model phenotypes” (Frontiers in Neuroscience, 2022)

Key:
[1] = molecular target: T1, NCS-1/Ric8a complex (Homo sapiens, UniProt P62166); assay: In situ proximity ligation assay (PLA) of NCS-1 binding to Ric8a in HEK293 cells; type: cell-based; settings: FD44 20 μM
T1 construct: expressed in transfected cells; host or cells: HEK293
Method: Human embryonic kidney HEK293 cells were grown in Dulbecco's modified Eagle's medium supplemented with 2 mM L-glutamine, 100 U/ml penicillin/streptomycin, MEM non-essential amino acid solution (1/100), and 5% (v/v), and heat-inactivated fetal bovine serum (all from Thermo). The human NCS-1 and Ric8a-V5 constructs were previously generated (Mansilla et al., [2017]). Plasmids were co-transfected onto HEK293 using Lipofectamin 2000 (Thermo) following the manufacturer's instructions. Approximately 20 μM of FD44 diluted in dimethyl sulfoxide (DMSO) or the same volume of DMSO was added to culture cells 24 h after transfection.
For the in situ proximity ligation assay (PLA), cells were grown in coverslips and, after transfection and treatment, fixed for 20 min with a fixation reagent, and later permeabilized with a permeabilization reagent, all from the Intracellular Fixation and Permeabilization buffer set (eBioscience, Thermo). […] Finally, interactions were detected with Duolink in Situ PLA Green Detection kit (Sigma) following the manufacturer's instructions. Cover slips were mounted with ProLong reagent (Thermo) containing Hoescht, and staining was analyzed with a standard fluorescence microscope.
To better quantify the interaction, PLA was performed followed by flow cytometry. […] Cells were analyzed on FACS Canto II (BD Bioscience) with BD FACS Diva software.

[2] = Pharmacokinetic profile, plasma and brain, single dose in BALB/c WT mice; type: in vivo; settings: mouse
Method: The pharmacokinetic (PK) assay was performed by Sai Life Sciences Ltd. in BALB/c WT mice aged 8–12-months.
(§1) FD44 solution formulation in 5% NMP, 5% Solutol HS-15, 30% PEG-400, and 60% citric acid (10 mM) was administered in doses of 10 and 50 mg/kg dose intraperitoneally and orally, respectively. A single dose was administered to 8–12-month-old mice for PK and a daily intraperitoneal dose to 2-month-old mice for 4 weeks for further behavioral and biochemical studies. […] PK was performed in collaboration with Sai life Science Ltd. Blood samples were collected from retro-orbital plexus into ethylenediamine tetraacetic acid (EDTA) tubes from a set of three mice at each time point. Plasma was immediately harvested from the blood by centrifugation at 2,500 g for 10 min at 4°C. Immediately after collection of blood, brain samples were collected and homogenized using ice-cold phosphate buffer saline. Concentrations of FD44 in mouse plasma and brain samples were determined by the fit-for-purpose liquid chromatography with tandem mass spectrometry (LC-MS/MS) method. PK parameters were calculated using the non-compartmental analysis tool of Phoenix WinNonlin® (Version 7.0). Areas under the concentration time curve (AUClast and AUCinf) were calculated using a linear trapezoidal rule.

[3] = system: Fmr1 KO2 mice; assay: Open field test (hyperactivity) in Fmr1 KO2 mice; type: in vivo, mouse; settings: 10 mg/kg IP daily for 4 weeks
Method: as §1, with “Immediately after collection of blood, brain samples were collected and homogenized using ice-cold phosphate buffer saline.” left out
(§2) Tests were conducted at the end of the treatment, that is, 4th week, and mice were tested on one behavioral task a day. […] Activity was monitored by IR beam breaks and decoded using VersaDat software (AccuScan). […] The distance traveled for 30 min was measured in centimeter for all cases.

[4] = system: Fmr1 KO2 mice; assay: Fear conditioning (associative learning) in Fmr1 KO2 mice; type: in vivo, mouse; settings: 10 mg/kg IP daily for 4 weeks
Method: as §1
Associative learning of an aversive sound followed by an electrical shock was used to analyze fear conditioning. […] Memory was tested 24 h after training, and freezing time was recorded for 5 min.

[5] = system: Fmr1 KO2 mice; assay: Self-grooming (stereotype) in Fmr1 KO2 mice; type: in vivo, mouse; settings: 10 mg/kg IP daily for 4 weeks
Method: as §1, with “Immediately after collection of blood, brain samples were collected and homogenized using ice-cold phosphate buffer saline.” left out
(§3) Stereotype was evaluated by self-grooming. For this, mice were placed individually in a cage, after a 5-min habituation period, the time spent to grooming any part of the body was recorded for 3 min. […] The latency between attacks was measured for 3 min.

[6] = system: Fmr1 KO2 mice; assay: Aggression test (latency between attacks) in Fmr1 KO2 mice; type: in vivo, mouse; settings: 10 mg/kg IP daily for 4 weeks
Method: as §1, with “Immediately after collection of blood, brain samples were collected and homogenized using ice-cold phosphate buffer saline.” left out
as §3

[7] = system: Fmr1 KO mice; assay: Open field test (hyperactivity) in Fmr1 KO mice; type: in vivo, mouse; settings: 10 mg/kg IP for 4 weeks
Method: as §1, with “Immediately after collection of blood, brain samples were collected and homogenized using ice-cold phosphate buffer saline.” left out
as §2

[8] = system: Fmr1 KO mice; assay: Three-chamber social test in Fmr1 KO mice; type: in vivo, mouse; settings: 10 mg/kg IP for 4 weeks
Method: as §1
The three-chamber test assesses cognition in the form of interest in social novelty. Testing occurs in a three-chambered box with openings between the chambers. […] The time spent in each chamber is quantified for 6 min.

[9] = system: DA metabolism; assay: DA levels and DA metabolic profile (HPLC) in brain areas of Fmr1 KO mice; type: in vivo, mouse; settings: FD44 IP for 4 weeks
Method: as §1, with “Immediately after collection of blood, brain samples were collected and homogenized using ice-cold phosphate buffer saline.” left out, “rule. […]” for “rule.”
Tissue samples were preserved at −80°C until analysis. […] DA and its metabolites were measured from supernatants by HPLC with an ESA Coulochem detector, according to Mena et al. ([1993]). […] Monoamine levels were identified by their retention time, and amounts were calculated against calibrated external standard solutions. […]

[10] = system: Fmr1 KO, Fmr1 KO2, and WT mice; assay: Tolerability on treatment of mice; type: in vivo; settings: 10 mg/kg IP / 50 mg/kg PO
Method: as §1

[11] = system: NCS-1/Ric8a complex; design: method as in Mansilla et al., 2017; settings: cell lysate; ref Mansilla et al., 2017; cited from earlier work
[12] = system: neuronal cultures; design: method as in Mansilla et al., 2017; settings: ref Mansilla et al., 2017; cited from earlier work
[13] = system: D1R; design: method as in Mansilla et al., 2017; settings: ref Mansilla et al., 2017; cited from earlier work
[14] = system: D2R; design: method as in Mansilla et al., 2017; settings: ref Mansilla et al., 2017; cited from earlier work
[15] = system: D. melanogaster FMRP mutants; settings: Drosophila melanogaster FXS model (FMRP mutants or fmr1 RNAi strain), FD44 in the food; ref Mansilla et al., 2017; cited from earlier work
[16] = design: method as in Mansilla et al., 2017; settings: among compounds previously identified as NCS-1/Ric8a inhibitors; ref Mansilla et al., 2017; cited from earlier work

T1 sequence (P62166 2-190 limits assumed, one chain of several): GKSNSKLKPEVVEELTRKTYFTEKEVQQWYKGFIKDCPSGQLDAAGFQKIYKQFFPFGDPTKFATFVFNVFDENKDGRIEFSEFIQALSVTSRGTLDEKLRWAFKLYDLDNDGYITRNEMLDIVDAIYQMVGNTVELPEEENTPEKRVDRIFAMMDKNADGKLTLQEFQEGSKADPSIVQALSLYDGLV

O=C(CN1CCCCC1)NN1c2ccccc2Sc2ccccc21 [FD44]
intensity and number of green fluorescence spots representing the NCS-1/Ric8a binding (PLA, microscopy) ([1]; HEK293 co-transfected with NCS-1 and Ric8a-V5, 24 h): reduced
reduction in binding (PLA followed by flow cytometry, mean fluorescence intensity) ([1]; HEK293 co-transfected with human NCS-1 and Ric8a-V5, last 24 h, four independent experiments): 40%
Cmax ([2]; IP, 10 mg/kg single dose, brain): 2560.16 ng/mL
Tmax ([2]; IP, 10 mg/kg single dose, brain, 10 mg/kg): 15 min
Brain-to-plasma ratio ([2]; IP, 10 mg/kg single dose): 2.48–7.65
time up to which brain concentrations were quantifiable ([2]; IP, 10 mg/kg single dose): up to 480 min
time up to which plasma concentrations were quantifiable ([2]; IP, 10 mg/kg single dose): up to 480 min
Cmax ([2]; IP, 10 mg/kg single dose, plasma): 981.19 ng/mL
Tmax ([2]; IP, 10 mg/kg single dose, plasma, 10 mg/kg): 5 min
Cmax ([2]; PO, 50 mg/kg single dose, brain): 5164.38 ng/mL
Tmax ([2]; PO, 50 mg/kg single dose, brain, 50 mg/kg): 15 min
Brain-to-plasma ratio ([2]; PO, 50 mg/kg single dose): 2.90 to 6.81
time up to which brain concentrations were quantifiable ([2]; PO, 50 mg/kg single dose): up to 480 min
time up to which plasma concentrations were quantifiable ([2]; PO, 50 mg/kg single dose): up to 480 min
Cmax ([2]; PO, 50 mg/kg single dose, plasma): 858.90 ng/mL
Tmax ([2]; PO, 50 mg/kg single dose, plasma, 50 mg/kg): 15 min
blood–brain barrier crossing ([2]; IP and PO PK study): perfectly crosses the blood–brain barrier
hyperactivity, distance traveled in the open field [3]: complete recovery
associative learning, freezing response after fear conditioning [4]: completely rescued impaired associative learning
stereotype, self-grooming [5]: restored
aggression, latency between attacks [6]: low level of aggressiveness similar to their WT counterparts
hyperactivity, distance traveled in the open field [7]: normalizes
social interest, time in chamber with unfamiliar vs familiar mouse (three-chamber test) [8]: able to restore the impaired social interest
DA metabolism ratio (metabolites HVA + DOPAC/DA) increase in the limbic area [9]: reversed
tolerability, clinical signs [10]: well tolerated
inhibitory effect in a binding assay in vitro (co-immunoprecipitation) [11]: almost total inhibitory effect
toxicity in neuronal cultures [12]: low toxicity
interaction with dopamine receptor D1R [13]: does not interact
interaction with dopamine receptor D2R [14]: does not interact
associative learning [15]: restored
synapse number [15]: restored
solubility profile [16]: best solubility profile
